The numbers were not newly measured in patent US12156858B2, “Pharmaceutical compositions comprising levodopa, a dopamine decarboxylase inhibitor and a COMT inhibitor and method of administration thereof” (InTrance Medical Systems Inc., priority 2014, dated 2024), which cites them from elsewhere.

For the data set the following is noted: intake of levodopa alone.

SMILES strings stand for the structures.

Take `N[C@@H](Cc1ccc(O)c(O)c1)C(=O)O` [Levodopa, (−)-L-α-amino-β-(3,4-dihydroxybenzene) propanoic acid]: the “share metabolized to dopamine before levodopa reaches the brain” value is “more than 90%”.
